Experiments:
[1] = test system: U937 cells (monocytic cell line); assay: Cell proliferation inhibition assay (WST-1), U937; type: cell-based; conditions: for IC50: Homo sapiens, U-937, read-out: Cell proliferation IC50 nM (U937 cells); for selectivity between a monocytic and non-monocytic cell line (cell proliferation): U937 versus HCT116
Experimental: (§1) Following 24 h of growth cells were treated with compound. Plates were then re-incubated for a further 72-96 h before a WST-1 cell viability assay was conducted according to the suppliers (Roche Applied Science) instructions.
(§2) Data were expressed as a percentage inhibition of the control, measured in the absence of inhibitor, as follows: —
(§3) where S^i is the signal in the presence of inhibitor and S^o is the signal in the presence of DMSO.
(§4) Dose response curves were generated from 8 concentrations (top final concentration 10 μM, with 3-fold dilutions), using 6 replicates.

[2] = test system: carboxylesterase (U937 cell extract); assay: Broken cell carboxylesterase assay, U937 cell extract; type: in vitro ADME; conditions: U937 versus HCT116
Experimental: U937 or HCT 116 tumour cells (˜10^9) were washed in 4 volumes of Dulbeccos PBS (˜1 litre) and pelleted at 525 g for 10 min at 4° C. This was repeated twice and the final cell pellet was resuspended in 35 ml of cold homogenising buffer (Trizma 10 mM, NaCl 130 mM, CaCl2 0.5 mM pH 7.0 at 25° C.). Homogenates were prepared by nitrogen cavitation (700 psi for 50 min at 4° C.). The homogenate was kept on ice and supplemented with a cocktail of inhibitors at final concentrations of: • Leupeptin 1 μM • Aprotinin 0.1 μM • E64 8 μM • Pepstatin 1.5 μM • Bestatin 162 μM • Chymostatin 33 μM
After clarification of the cell homogenate by centrifugation at 525 g for 10 min, the resulting supernatant was used as a source of esterase activity and was stored at −80° C. until required.
Hydrolysis of esters to the corresponding carboxylic acids can be measured using the cell extract, prepared as above. To this effect cell extract (˜30 μg/total assay volume of 0.5 ml) was incubated at 37° C. in a Tris-HCl 25 mM, 125 mM NaCl buffer, pH 7.5 at 25° C. At zero time the ester (substrate) was then added at a final concentration of 2.5 μM and the samples were incubated at 37° C. for the appropriate time (usually 0 or 80 min). […] After centrifugation at 12000 g for 5 min, samples were analysed for the ester and its corresponding carboxylic acid at room temperature by LCMS (Sciex API 3000, HP1100 binary pump, CTC PAL). […]

[3] = test system: HCT116 (non-monocytic cell line); assay: Cell proliferation inhibition assay (WST-1), HCT116; type: cell-based; conditions: for Ratio IC50 cell/enzyme: HCT116 cell proliferation IC50 / DHFR enzyme IC50; for IC50: Homo sapiens, HCT-116, HCT116 non-monocytic cell line, read-out: Cell proliferation IC50 nM (HCT116)
Experimental: as §1, §2, §3, §4

[4] = test system: HDAC - Hela cell nuclear extract; assay: Histone deacetylase inhibitory activity assay (Fluor de Lys); type: biochemical; conditions: read-out: Enzyme inhibition IC50 nM (HDAC - Hela cell nuclear extract)
Experimental: The ability of compounds to inhibit histone deacetylase activities was measured using the commercially available HDAC fluorescent activity assay from Biomol. […] Histone deacetylase activity from crude nuclear extract derived from HeLa cells was used for screening. The preparation, purchased from 4C (Seneffe, Belgium), was prepared from HeLa cells harvested whilst in exponential growth phase. […] Acid. […] The final buffer composition was 20 mM Hepes, 100 mM KCl, 0.2 mM EDTA, 0.5 mM DTT, 0.2 mM PMSF and 20% (v/v) glycerol.

[5] = molecular target: T1, PI 3-kinase γ (Homo sapiens, UniProt P48736); assay: PI 3-kinase γ inhibition assay (HTRF); type: biochemical; conditions: 100 μM MgATP; read-out: Enzyme inhibition IC50 nM (PI3-Kinase)
T1 construct: recombinant N-terminally His6-tagged, full length human enzyme; His6 (N); purchased Upstate (Dundee, UK), assay run by the vendor; host or cells: baculovirus / Sf21 insect cells
T1 sequence (P48736 whole entry): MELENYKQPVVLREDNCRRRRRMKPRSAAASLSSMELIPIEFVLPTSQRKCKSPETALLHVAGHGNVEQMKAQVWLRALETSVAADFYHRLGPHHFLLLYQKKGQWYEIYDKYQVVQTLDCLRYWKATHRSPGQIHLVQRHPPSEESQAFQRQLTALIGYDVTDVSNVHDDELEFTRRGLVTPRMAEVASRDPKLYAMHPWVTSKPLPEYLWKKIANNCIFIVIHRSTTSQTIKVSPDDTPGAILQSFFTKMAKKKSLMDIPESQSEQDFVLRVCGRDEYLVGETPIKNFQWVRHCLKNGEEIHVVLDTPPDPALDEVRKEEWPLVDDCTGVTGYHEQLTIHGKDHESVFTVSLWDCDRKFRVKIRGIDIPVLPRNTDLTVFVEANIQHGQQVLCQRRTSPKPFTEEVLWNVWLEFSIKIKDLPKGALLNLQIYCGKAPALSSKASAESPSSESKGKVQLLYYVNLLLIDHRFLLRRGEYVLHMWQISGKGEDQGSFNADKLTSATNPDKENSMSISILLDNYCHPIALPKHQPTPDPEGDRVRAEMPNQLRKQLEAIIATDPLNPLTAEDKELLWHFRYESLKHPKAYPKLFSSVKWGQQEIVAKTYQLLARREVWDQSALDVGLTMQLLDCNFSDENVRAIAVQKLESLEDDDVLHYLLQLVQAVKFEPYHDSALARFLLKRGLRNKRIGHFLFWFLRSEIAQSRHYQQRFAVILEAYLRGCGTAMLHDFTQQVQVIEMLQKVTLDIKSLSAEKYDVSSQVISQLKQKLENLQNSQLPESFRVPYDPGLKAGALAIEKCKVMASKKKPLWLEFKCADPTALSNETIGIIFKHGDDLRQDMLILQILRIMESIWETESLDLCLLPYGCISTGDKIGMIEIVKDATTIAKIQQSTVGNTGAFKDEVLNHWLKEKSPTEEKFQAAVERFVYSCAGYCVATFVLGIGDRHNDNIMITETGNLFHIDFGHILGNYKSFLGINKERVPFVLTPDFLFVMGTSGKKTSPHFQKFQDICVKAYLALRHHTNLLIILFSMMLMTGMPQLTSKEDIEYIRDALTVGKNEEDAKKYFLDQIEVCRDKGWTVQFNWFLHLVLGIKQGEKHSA
Description: The measurement of PI 3-kinase γ activity is dependent upon the specific and high affinity binding of the GRP1 pleckstrin homology (PH) domain to PIP3, the product of PI 3-kinase activity. A complex is formed between europium-labelled anti-GST monoclonal antibody, a GST-tagged GRP1 PH domain, biotinylated PIP3 and streptavidin-allophycocyanin (APC). This complex generates a stable time-resolved fluorescence resonance energy transfer (FRET) signal, which is diminished by competition of PIP3, generated in the PI 3-kinase assay, with the biotinylated PIPS.
The reaction was initiated by the addition of the MgATP mix. After incubation for 30 minutes at room temperature, the reaction was stopped by the addition of 5 μl of stop solution containing EDTA and biotinylated phosphatidylinositol-3,4,5-trisphosphate. Finally, 5 μl of detection buffer was added, which contained europium-labelled anti-GST monoclonal antibody, GST-tagged GRP1 PH domain and streptavidin-APC. The plate was then read in time-resolved fluorescence mode and the homogenous time-resolved fluorescence (HTRF) signal was determined according to the formula HTRF=10000×(Em665 nm/Em620 nm).
Duplicate data points were generated from a ½ log dilution series of a stock solution of compound in DMSO. Nine dilutions steps were made from a top final concentration of 10 μM, and a ‘no compound’ blank was included. HTRF ratio data were transformed into % activity of controls and analysed with a four parameter sigmoidal dose-response (variable slope) application. The concentration giving 50% inhibition (1050) was determined.

[6] = test system: TNFα production in human whole blood; assay: LPS-stimulation of human whole blood, TNF-α ELISA; type: cell-based; conditions: for IC50: Homo sapiens, LPS 100 ng/ml, 6 h, read-out: Inhibition of TNFα production in human whole blood IC50; for Ratio IC50 WB/enzyme: whole blood TNFα IC50 / PI3-Kinase IC50
Experimental: Whole blood was taken by venous puncture using heparinised vacutainers (Becton Dickinson) and diluted in an equal volume of RPMI1640 tissue culture media. 100 μl was plated in V-bottomed 96 well tissue culture plates. Inhibitor was added in 100 μl of RPMI1640 media, and 2 h later the blood was stimulated with LPS (E coli strain 005:B5, Sigma) at a final concentration of 100 ng/ml and incubated at 37° C. in 5% CO2 for 6 h. TNF-α levels were measured from cell-free supernatants by sandwich ELISA (R&D Systems #QTA00B).

[7] = U937 cell proliferation IC50 / DHFR enzyme IC50

`Cc1c(CNc2ccc(OCC[C@H](NC3CCCCC3)C(=O)OC3CCCC3)cc2)cnc2nc(N)nc(N)c12` [Compound 4, (S)-2-Cyclohexylamino-4-{4-[(2,4-diamino-5-methyl-pyrido[2,3-d]pyrimidin-6-ylmethyl)-amino]-phenoxy}-butyric acid cyclopentyl ester] was tested, and the IC50 ([1]; U937 monocytic cell line) was 310 nM, the “Ratio IC50 cell/enzyme” value [1, 7] was 0.3 and the “selectivity between a monocytic and non-monocytic cell line (cell proliferation)” value [1] was “significantly more anti-proliferative in monocytic cell lines then non-monocytic cell lines”. For the same compound, the “cleavage of ester in monocytic versus non-monocytic cell lines” value [2] was “selective cleavage in monocytic but not non-monocytic cell lines”, the “Ratio IC50 cell/enzyme” value [3] was 6.6 and the IC50 [3] was 6900 nM.
With `Cc1c(CNc2ccc(CN[C@@H](CC(C)C)C(=O)OC3CCCC3)cc2)cnc2nc(N)nc(N)c12` [Compound 5, (S)-2-{4-[(2,4-Diamino-5-methyl-pyrido[2,3-d]pyrimidin-6-ylmethyl)-amino]-benzylamino}-4-methyl-pentanoic acid cyclopentyl ester] the IC50 ([1]; U937 monocytic cell line) was 310 nM, the “Ratio IC50 cell/enzyme” value [1, 7] was 0.8 and the “selectivity between a monocytic and non-monocytic cell line (cell proliferation)” value [1] was “significantly more anti-proliferative in monocytic cell lines then non-monocytic cell lines”. The “cleavage of ester in monocytic versus non-monocytic cell lines” value [2] was “selective cleavage in monocytic but not non-monocytic cell lines”, the “Ratio IC50 cell/enzyme” value [3] was 1.7 and the IC50 [3] was 6700 nM.
For `O=C(CCCCCCC(=O)Nc1cccc(CN[C@H](C(=O)OC2CCCC2)c2ccccc2)c1)NO` [Compound 8, (S)-[3-(7-Hydroxycarbamoyl-heptanoylamino)-benzylamino]-phenyl-acetic acid cyclopentyl ester], the IC50 [4] was 100 nM, the IC50 ([1]; U937 monocytic cell line) was 50 nM and the “Ratio IC50 cell/enzyme” value ([1]; U937 cell proliferation IC50 / HDAC enzyme IC50) was 0.5.
For `O=C(CCCCCCC(=O)Nc1cccc(CN[C@H](C(=O)O)c2ccccc2)c1)NO` [Compound 9, (S)-[3-(7-Hydroxycarbamoyl-heptanoylamino)-benzylamino]-phenyl-acetic acid], the IC50 [4] was 70 nM and the “Cell proliferation IC50 nM (U937 cells)” value ([1]; U937 monocytic cell line) was “Inactive”.
`CC(=O)Nc1nc(C)c(-c2ccc(Cl)c(S(C)(=O)=O)c2)s1` [Compound 20, N-[5-(4-Chloro-3-methanesulfonyl-phenyl)-4-methyl-thiazol-2-yl]-acetamide, reference compound] was tested, and the IC50 [5] was 500 nM, the IC50 [6] was 8500 nM and the “Ratio IC50 WB/enzyme” value [6] was 17.
In the case of `Cc1nc(NC(=O)CC[C@H](N)C(=O)OC2CCCC2)sc1-c1ccc(Cl)c(S(C)(=O)=O)c1` [Compound 21, (S)-2-Amino-4-[5-(4-chloro-3-methanesulfonyl-phenyl)-4-methyl-thiazol-2-ylcarbamoyl]-butyric acid cyclopentyl ester], the IC50 [5] is reported as 2700 nM, the IC50 [6] is reported as 400 nM and the “Ratio IC50 WB/enzyme” value [6] is reported as 0.15.
`Cc1nc(NC(=O)CC[C@H](N)C(=O)OC(C)(C)C)sc1-c1ccc(Cl)c(S(C)(=O)=O)c1` [Compound 23, (S)-2-Amino-4-[5-(4-chloro-3-methanesulfonyl-phenyl)-4-methyl-thiazol-2-ylcarbamoyl]-butyric acid tert-butyl ester] was tested, and the IC50 [5] was 7100 nM, the IC50 [6] was 5200 nM and the “Ratio IC50 WB/enzyme” value [6] was 0.75.
